From article PMC4844176 (Xenobiotica; the fate of foreign compounds in biological …, 2015)

Legend:
other UGTs = experiment: Inhibition by aprepitant of other UGTs; assay type: in vitro ADME, human; settings: 1 µM aprepitant, UGTs other than UGT2B7
[1] = ref Merck 2003; cited from earlier work
UGT2B10 = biological target: T1, UGT2B10 (Homo sapiens, UniProt P36537); experiment: Screening for aprepitant glucuronidation, UGT2B10 Supersomes; assay type: in vitro ADME; settings: UGT2B10, 5 and 250 µM aprepitant
T1 sequence (P36537 24-528): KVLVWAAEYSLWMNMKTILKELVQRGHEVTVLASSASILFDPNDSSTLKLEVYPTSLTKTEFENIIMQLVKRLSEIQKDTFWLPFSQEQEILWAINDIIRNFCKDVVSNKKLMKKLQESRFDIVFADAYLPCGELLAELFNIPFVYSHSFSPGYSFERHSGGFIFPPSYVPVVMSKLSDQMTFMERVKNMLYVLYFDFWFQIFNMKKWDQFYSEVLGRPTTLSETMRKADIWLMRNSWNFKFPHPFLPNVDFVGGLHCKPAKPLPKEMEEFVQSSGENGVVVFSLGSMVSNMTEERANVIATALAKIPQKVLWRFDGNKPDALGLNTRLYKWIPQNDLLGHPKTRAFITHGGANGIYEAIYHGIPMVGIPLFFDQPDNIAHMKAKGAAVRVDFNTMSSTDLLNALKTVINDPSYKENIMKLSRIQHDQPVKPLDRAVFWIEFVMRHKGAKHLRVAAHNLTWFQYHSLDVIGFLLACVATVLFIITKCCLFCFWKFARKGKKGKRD

UGT1A6 = biological target: T2, UGT1A6 (Homo sapiens, UniProt P19224); experiment: Inhibition by aprepitant of UGT1A6; assay type: in vitro ADME; settings: UGT1A6 enzyme, pH 7.5, probe 4-MU
T2 sequence (P19224 27-532): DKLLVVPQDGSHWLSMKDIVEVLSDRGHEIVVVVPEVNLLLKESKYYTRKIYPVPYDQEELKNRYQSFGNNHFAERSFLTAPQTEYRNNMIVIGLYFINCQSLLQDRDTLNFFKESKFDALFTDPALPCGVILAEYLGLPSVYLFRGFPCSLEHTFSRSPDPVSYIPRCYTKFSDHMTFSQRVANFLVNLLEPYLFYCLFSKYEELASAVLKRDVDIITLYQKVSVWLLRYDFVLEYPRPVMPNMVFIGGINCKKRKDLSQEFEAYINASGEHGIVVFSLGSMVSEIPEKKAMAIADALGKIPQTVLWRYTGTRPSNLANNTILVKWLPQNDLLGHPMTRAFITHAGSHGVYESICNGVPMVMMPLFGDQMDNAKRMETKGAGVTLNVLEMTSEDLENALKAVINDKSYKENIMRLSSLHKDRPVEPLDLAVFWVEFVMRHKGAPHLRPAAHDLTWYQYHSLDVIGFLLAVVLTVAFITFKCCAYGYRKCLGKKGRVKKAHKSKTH

[2] = Calculated concentration of drug in the lumen of the gut; parameters: species or system human; settings: molar dose/250 mL
[3] = system: human liver microsomes (HLM); assay type: in vitro ADME; settings: microsomes from 44 livers, 30 µM aprepitant
UGT1A7 = biological target: T3, UGT1A7 (Homo sapiens, UniProt Q9HAW7); experiment: Screening for aprepitant glucuronidation, UGT1A7 Supersomes; assay type: in vitro ADME; settings: UGT1A7, 5 and 250 µM aprepitant
T3 sequence (Q9HAW7 26-530): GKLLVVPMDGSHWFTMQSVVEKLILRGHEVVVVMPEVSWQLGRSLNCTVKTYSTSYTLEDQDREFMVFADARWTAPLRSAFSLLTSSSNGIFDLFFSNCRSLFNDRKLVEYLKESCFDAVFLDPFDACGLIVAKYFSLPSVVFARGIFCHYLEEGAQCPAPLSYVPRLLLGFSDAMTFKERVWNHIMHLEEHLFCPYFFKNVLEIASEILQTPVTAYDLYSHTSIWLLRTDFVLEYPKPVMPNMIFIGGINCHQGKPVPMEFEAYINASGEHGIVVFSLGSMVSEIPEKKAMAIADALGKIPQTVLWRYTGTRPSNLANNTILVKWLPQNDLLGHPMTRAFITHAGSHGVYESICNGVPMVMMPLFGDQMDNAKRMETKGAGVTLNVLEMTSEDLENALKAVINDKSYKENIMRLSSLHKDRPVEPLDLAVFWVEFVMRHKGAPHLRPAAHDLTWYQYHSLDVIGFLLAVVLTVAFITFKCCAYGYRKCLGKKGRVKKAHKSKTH

[4] = system: UGTs in human intestinal microsomes (HIM); experiment: in vitro; settings: pH 7.5
in vitro = settings: human, microsomes, pH 7.5
[5] = system: human intestinal microsomes (HIM)
UGT2B7 = biological target: T4, UGT2B7 (Homo sapiens, UniProt P16662); experiment: Inhibition by aprepitant of UGT2B7; assay type: in vitro ADME; settings: UGT2B7 enzyme, pH 7.5, probe 4-MU
T4 sequence (P16662 24-529): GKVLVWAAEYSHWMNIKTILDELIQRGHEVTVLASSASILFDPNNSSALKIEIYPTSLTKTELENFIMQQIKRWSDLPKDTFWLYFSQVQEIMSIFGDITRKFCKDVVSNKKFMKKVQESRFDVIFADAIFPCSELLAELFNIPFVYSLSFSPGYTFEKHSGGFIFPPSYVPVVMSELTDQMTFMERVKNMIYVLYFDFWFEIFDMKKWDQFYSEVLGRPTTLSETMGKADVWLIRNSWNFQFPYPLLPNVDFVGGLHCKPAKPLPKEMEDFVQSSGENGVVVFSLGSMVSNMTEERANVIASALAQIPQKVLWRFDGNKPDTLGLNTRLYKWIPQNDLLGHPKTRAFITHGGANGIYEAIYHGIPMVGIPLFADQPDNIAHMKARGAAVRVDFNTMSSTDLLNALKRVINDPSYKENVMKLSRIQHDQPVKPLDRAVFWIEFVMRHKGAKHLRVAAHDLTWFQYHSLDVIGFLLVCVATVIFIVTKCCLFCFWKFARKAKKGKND

AP-G formation (UGT2B10): not detected | inhibition at 10 µM (UGT1A6): 19% | luminal concentration (Igut) ([2]; 40 mg oral capsule): 300 µM | luminal concentration (Igut) ([2]; 125 mg oral capsule): 936 µM | variation of glucuronidation activity between livers [3]: approximately 2 fold | AP-G formation (UGT1A7): not detected | Km at 60 min [4]: 63 ± 5 µM | microsomal CLint (in vitro): 5600 µL/min/mg | velocity of AP-G formation ([5]; human, 60 min, 250 µM, pH 7.5): 278.3 ± 1.9 fmol/min/mg protein | inhibition at 1 µM (UGT2B7): ~17% | inhibition at 10 µM (UGT2B7): 70%
Compound: C[C@@H](O[C@H]1OCCN(Cc2n[nH]c(=O)[nH]2)[C@H]1c1ccc(F)cc1)c1cc(C(F)(F)F)cc(C(F)(F)F)c1 [aprepitant, Aprepitant]
inhibition of other UGTs (other UGTs): < 10% | mean absolute oral bioavailability [1]: 60–65% | Vmax ([5]; HIM, mean ± SE): 352 ± 8 fmol/min/mg protein
